Assays:
[1] = Rodent biodistribution study in normal Fischer rats; type: in vivo, rat; details: for Tissue distribution of radioactivity, Blood / Tissue distribution of radioactivity, Bone / Tissue distribution of radioactivity, Brain / Tissue distribution of radioactivity, Heart / Tissue distribution of radioactivity, Kidney / Tissue distribution of radioactivity, Liver / Tissue distribution of radioactivity, Lung / Tissue distribution of radioactivity, Muscle / Tissue distribution of radioactivity, Pancreas / Tissue distribution of radioactivity, Spleen / Tissue distribution of radioactivity, Testis: normal Fischer rats
Method: Rodent biodistribution studies. The same procedures were used to evaluate [^18F]5a and [^18F]5b separately in rodents. The tissue distribution of radioactivity was determined in 16 normal male Fischer 344 rats (200-250 g) after intravenous injection of ˜85 μCi of [^18F]5a or [^18F]5b in 0.3 mL of sterile water. The animals were allowed food and water ad libitum before the experiment. Following anesthesia induced with an intramuscular injection of 0.1 mL/100 g of a 1:1 ketamine ([…]):xylazine (20 mg/mL) solution, the radiolabeled amino acid was injected into the rats via tail vein catheters. Groups of four rats were killed at 5 minutes, 30 minutes, 60 minutes and 120 minutes after injection of the dose. The animals were dissected, and selected tissues were weighed and counted along with dose standards in a Packard Cobra II Auto-Gamma Counter. The raw counts were decay corrected, and the counts were normalized as the percent of total injected dose per gram of tissue (% ID/g). A comparison of the uptake of activity in the tissues at each time point was analyzed using a 1-way ANOVA (GraphPad Prism software package).

9 L gliosarcoma tumor = experiment: Biodistribution in Fischer rats with intracranial 9 L gliosarcoma tumor; type: in vivo; details: tumor-bearing Fischer rats; for Tissue distribution of radioactivity, Brain: normal brain contralateral to tumor
Method: Tumor induction and animal preparation. All animal experiments were carried out under humane conditions and were approved by the Institutional Animal Use and Care Committee (IUCAC) at Emory University. Rat 9 L gliosarcoma cells were implanted into the brains of male Fischer rats as described previously [Shoup, T M et al. (1999), J. Nucl. Med. 40:331-338]. Briefly, anesthetized rats placed in a stereotactic head holder were injected with a suspension of 4×10^4 rat 9 L gliosarcoma cells (1×10^7 per mL) in a location 3 mm right of midline and 1 mm anterior to the bregma at a depth of 5 mm deep to the outer table. The injection was performed over the course of 2 minutes, and the needle was withdrawn over the course of 1 minute to minimize the backflow of tumor cells. The burr hole and scalp incision were closed, and the animals were returned to their original colony after recovering from the procedure. Intracranial tumors developed that produced weight loss, apathy and hunched posture in the tumor-bearing rats, and the animals were used at 17-19 days after implantation. Of the 30 animals implanted with tumor cells, 25 developed tumors visible to the naked eye upon dissection and were used in the study.
The tissue distribution of radioactivity was also determined in tumor-bearing Fischer 344 rats following intravenous injection of ˜35 μCi of [^18F]5a or [^18F]5b in 0.3 mL of sterile water. The procedure was similar to that already described for normal rats with the following modifications. The tail vein injections were performed in awake animals using a RTV-190 rodent restraint device (Braintree Scientific) to avoid mortality accompanying anesthesia in the presence of an intracranial mass. The animals were killed at 5 minutes, 60 minutes or 120 minutes post-injection. The same tissues were assayed as in normal rats with the addition of the tumor tissue, and the corresponding region of brain contralateral to the tumor was excised and used for comparison. The uptake in the tumor and contralateral brain at each time point was compared via a two-tailed t-test for paired observations (GraphPad Prism software package).

[2] = 5 min after injection, listed as [^18F]N-MeFAMP (5b)
[3] = 60 min after injection, listed as [^18F]N-MeFAMP (5b)
[4] = 120 min after injection, listed as [^18F]N-MeFAMP (5b)

In the case of CNC(C)(CF)C(=O)O (racemic) [[^18F]5b, 3-fluoro-2-methyl-2-(methylamino)propanoic acid], the “Tissue distribution of radioactivity, Blood” value (shortened to “Tissue distribution … Blood”) ([1]; 5 min after injection) is reported as 0.61 ± 0.02 percent dose per gram, the “Tissue distribution of radioactivity, Bone” value (“Tissue distribution … Bone” for short) ([1]; 5 min after injection) is reported as 0.34 ± 0.04 percent dose per gram and the “Tissue distribution of radioactivity, Brain” value (shortened to “Tissue distribution … Brain”) ([1]; 5 min after injection) is reported as 0.04 ± 0.005 percent dose per gram. For the same compound, the “Tissue distribution of radioactivity, Heart” value (shortened to “Tissue distribution … Heart”) ([1]; 5 min after injection) was 0.22 ± 0.01 percent dose per gram, the “Tissue distribution of radioactivity, Kidney” value (“Tissue distribution … Kidney” for short) ([1]; 5 min after injection) was 8.12 percent dose per gram and the “Tissue distribution of radioactivity, Liver” value (“Tissue distribution … Liver” below) ([1]; 5 min after injection) was 0.79 ± 0.06 percent dose per gram. For the same compound, the “Tissue distribution of radioactivity, Lung” value (shortened to “Tissue distribution … Lung”) ([1]; 5 min after injection) was 0.53 ± 0.03 percent dose per gram, the “Tissue distribution of radioactivity, Muscle” value (“Tissue distribution … Muscle” below) ([1]; 5 min after injection) was 0.16 ± 0.008 percent dose per gram and the “Tissue distribution of radioactivity, Pancreas” value (“Tissue distribution … Pancreas” below) ([1]; 5 min after injection) was 2.73 percent dose per gram. For the same compound, the “Tissue distribution of radioactivity, Spleen” value (“Tissue distribution … Spleen” for short) ([1]; 5 min after injection) was 0.44 ± 0.06 percent dose per gram, the “Tissue distribution of radioactivity, Testis” value (“Tissue distribution … Testis” for short) ([1]; 5 min after injection) was 0.17 ± 0.004 percent dose per gram and the “Tissue distribution … Kidney” value [1, 2] was 8.12 ± 0.62 percent dose per gram. The “Tissue distribution … Pancreas” value [1, 2] was 2.73 ± 0.28 percent dose per gram, the “Tissue distribution … Blood” value ([1]; 30 min after injection) was 0.30 ± 0.003 percent dose per gram and the “Tissue distribution … Bone” value ([1]; 30 min after injection) was 0.32 ± 0.04 percent dose per gram. For the same compound, the “Tissue distribution … Brain” value ([1]; 30 min after injection) was 0.04 ± 0.004 percent dose per gram, the “Tissue distribution … Heart” value ([1]; 30 min after injection) was 0.23 ± 0.03 percent dose per gram and the “Tissue distribution … Kidney” value ([1]; 30 min after injection) was 4.60 ± 0.70 percent dose per gram. For the same compound, the “Tissue distribution … Liver” value ([1]; 30 min after injection) was 0.72 ± 0.09 percent dose per gram, the “Tissue distribution … Lung” value ([1]; 30 min after injection) was 0.50 ± 0.07 percent dose per gram and the “Tissue distribution … Muscle” value ([1]; 30 min after injection) was 0.16 ± 0.003 percent dose per gram. The “Tissue distribution … Pancreas” value ([1]; 30 min after injection) was 3.00 ± 0.23 percent dose per gram, the “Tissue distribution … Spleen” value ([1]; 30 min after injection) was 0.75 ± 0.06 percent dose per gram and the “Tissue distribution … Testis” value ([1]; 30 min after injection) was 0.11 ± 0.005 percent dose per gram. For the same compound, the “Tissue distribution … Blood” value ([1]; 60 min after injection) was 0.18 ± 0.02 percent dose per gram, the “Tissue distribution … Bone” value ([1]; 60 min after injection) was 0.29 ± 0.04 percent dose per gram and the “Tissue distribution … Brain” value ([1]; 60 min after injection) was 0.03 ± 0.003 percent dose per gram. For the same compound, the “Tissue distribution … Heart” value ([1]; 60 min after injection) was 0.20 ± 0.02 percent dose per gram, the “Tissue distribution … Kidney” value ([1]; 60 min after injection) was 2.73 ± 0.35 percent dose per gram and the “Tissue distribution … Liver” value ([1]; 60 min after injection) was 0.78 ± 0.10 percent dose per gram. For the same compound, the “Tissue distribution … Lung” value ([1]; 60 min after injection) was 0.38 ± 0.07 percent dose per gram, the “Tissue distribution … Muscle” value ([1]; 60 min after injection) was 0.15 ± 0.007 percent dose per gram and the “Tissue distribution … Pancreas” value ([1]; 60 min after injection) was 3.24 ± 0.30 percent dose per gram. The “Tissue distribution … Spleen” value ([1]; 60 min after injection) was 0.68 ± 0.02 percent dose per gram, the “Tissue distribution … Testis” value ([1]; 60 min after injection) was 0.08 ± 0.005 percent dose per gram and the “Tissue distribution … Blood” value ([1]; 120 min after injection) was 0.10 ± 0.007 percent dose per gram. For the same compound, the “Tissue distribution … Bone” value ([1]; 120 min after injection) was 0.20 ± 0.02 percent dose per gram, the “Tissue distribution … Brain” value ([1]; 120 min after injection) was 0.03 ± 0.001 percent dose per gram and the “Tissue distribution … Heart” value ([1]; 120 min after injection) was 0.17 ± 0.02 percent dose per gram. The “Tissue distribution … Kidney” value ([1]; 120 min after injection) was 1.36 ± 0.27 percent dose per gram, the “Tissue distribution … Liver” value ([1]; 120 min after injection) was 0.58 ± 0.11 percent dose per gram and the “Tissue distribution … Lung” value ([1]; 120 min after injection) was 0.30 ± 0.08 percent dose per gram. For the same compound, the “Tissue distribution … Muscle” value ([1]; 120 min after injection) was 0.13 ± 0.007 percent dose per gram, the “Tissue distribution … Pancreas” value ([1]; 120 min after injection) was 2.88 ± 0.40 percent dose per gram and the “Tissue distribution … Spleen” value ([1]; 120 min after injection) was 0.47 ± 0.04 percent dose per gram. The “Tissue distribution … Testis” value ([1]; 120 min after injection) was 0.06 ± 0.005 percent dose per gram, the “brain uptake of radioactivity” value ([1]; normal rats, all time points) was “approximately 0.04 % ID/g” and the “Tissue distribution … Blood” value (9 L gliosarcoma tumor; 5 min after injection) was 0.69 ± 0.04 percent dose per gram. For the same compound, the “Tissue distribution … Bone” value (9 L gliosarcoma tumor; 5 min after injection) was 0.33 ± 0.04 percent dose per gram, the “Tissue distribution … Heart” value (9 L gliosarcoma tumor; 5 min after injection) was 0.34 ± 0.02 percent dose per gram and the “Tissue distribution … Kidney” value (9 L gliosarcoma tumor; 5 min after injection) was 9.33 ± 0.36 percent dose per gram. The “Tissue distribution … Liver” value (9 L gliosarcoma tumor; 5 min after injection) was 0.94 ± 0.12 percent dose per gram, the “Tissue distribution … Lung” value (9 L gliosarcoma tumor; 5 min after injection) was 0.61 ± 0.04 percent dose per gram and the “Tissue distribution … Muscle” value (9 L gliosarcoma tumor; 5 min after injection) was 0.22 ± 0.011 percent dose per gram. For the same compound, the “Tissue distribution … Pancreas” value (9 L gliosarcoma tumor; 5 min after injection) was 2.95 ± 0.58 percent dose per gram, the “Tissue distribution … Spleen” value (9 L gliosarcoma tumor; 5 min after injection) was 0.47 ± 0.04 percent dose per gram and the “Tissue distribution … Testis” value (9 L gliosarcoma tumor; 5 min after injection) was 0.19 ± 0.008 percent dose per gram. The “Tissue distribution of radioactivity, Tumor” value (“Tissue distribution … Tumor” for short) (9 L gliosarcoma tumor; 5 min after injection) was 1.29 percent dose per gram, the “Tissue distribution … Tumor” value (9 L gliosarcoma tumor; [2]) was 1.29 ± 0.28 percent dose per gram and the “Tissue distribution … Blood” value (9 L gliosarcoma tumor; 60 min after injection) was 0.17 ± 0.02 percent dose per gram. The “Tissue distribution … Bone” value (9 L gliosarcoma tumor; 60 min after injection) was 0.23 ± 0.04 percent dose per gram, the “Tissue distribution … Heart” value (9 L gliosarcoma tumor; 60 min after injection) was 0.25 ± 0.03 percent dose per gram and the “Tissue distribution … Kidney” value (9 L gliosarcoma tumor; 60 min after injection) was 2.79 ± 0.31 percent dose per gram. The “Tissue distribution … Liver” value (9 L gliosarcoma tumor; 60 min after injection) was 0.85 ± 0.17 percent dose per gram, the “Tissue distribution … Lung” value (9 L gliosarcoma tumor; 60 min after injection) was 0.26 ± 0.03 percent dose per gram and the “Tissue distribution … Muscle” value (9 L gliosarcoma tumor; 60 min after injection) was 0.19 ± 0.02 percent dose per gram. The “Tissue distribution … Pancreas” value (9 L gliosarcoma tumor; 60 min after injection) was 2.42 ± 0.27 percent dose per gram, the “Tissue distribution … Spleen” value (9 L gliosarcoma tumor; 60 min after injection) was 0.45 ± 0.06 percent dose per gram and the “Tissue distribution … Testis” value (9 L gliosarcoma tumor; 60 min after injection) was 0.08 ± 0.008 percent dose per gram. For the same compound, the “Tissue distribution … Tumor” value (9 L gliosarcoma tumor; 60 min after injection) was 2.28 percent dose per gram, the “Tissue distribution … Tumor” value (9 L gliosarcoma tumor; [3]) was 2.28 ± 0.16 percent dose per gram and the “Tissue distribution … Blood” value (9 L gliosarcoma tumor; 120 min after injection) was 0.10 ± 0.007 percent dose per gram. For the same compound, the “Tissue distribution … Bone” value (9 L gliosarcoma tumor; 120 min after injection) was 0.19 ± 0.02 percent dose per gram, the “Tissue distribution … Heart” value (9 L gliosarcoma tumor; 120 min after injection) was 0.19 ± 0.02 percent dose per gram and the “Tissue distribution … Kidney” value (9 L gliosarcoma tumor; 120 min after injection) was 1.59 ± 0.19 percent dose per gram. For the same compound, the “Tissue distribution … Liver” value (9 L gliosarcoma tumor; 120 min after injection) was 0.41 ± 0.06 percent dose per gram, the “Tissue distribution … Lung” value (9 L gliosarcoma tumor; 120 min after injection) was 0.19 ± 0.011 percent dose per gram and the “Tissue distribution … Muscle” value (9 L gliosarcoma tumor; 120 min after injection) was 0.16 ± 0.012 percent dose per gram. For the same compound, the “Tissue distribution … Pancreas” value (9 L gliosarcoma tumor; 120 min after injection) was 1.74 ± 0.24 percent dose per gram, the “Tissue distribution … Spleen” value (9 L gliosarcoma tumor; 120 min after injection) was 0.40 ± 0.02 percent dose per gram and the “Tissue distribution … Testis” value (9 L gliosarcoma tumor; 120 min after injection) was 0.08 ± 0.005 percent dose per gram. The “Tissue distribution … Tumor” value (9 L gliosarcoma tumor; 120 min after injection) was 1.94 percent dose per gram, the “Tissue distribution … Tumor” value (9 L gliosarcoma tumor; [4]) was 1.94 ± 0.12 percent dose per gram and the “Tissue distribution … Brain” value (9 L gliosarcoma tumor; 5 min after injection) was 0.032 ± 0.002 percent dose per gram. For the same compound, the “Tissue distribution … Brain” value (9 L gliosarcoma tumor; 60 min after injection) was 0.022 percent dose per gram, the “Tissue distribution … Brain” value (9 L gliosarcoma tumor; [3]) was 0.022 ± 0.006 percent dose per gram and the “Tissue distribution … Brain” value (9 L gliosarcoma tumor; 120 min after injection) was 0.020 percent dose per gram. The “Tissue distribution … Brain” value (9 L gliosarcoma tumor; [4]) was 0.020 ± 0.005 percent dose per gram.
